Experimental data as given in US20050277190A1, “Pancreatic stem cells” (priority 2004, published 2005).
Entries after “also recorded” stand apart in the source; their conditions may differ. Ends that are not written are not given here.

Key:
Assay type in all cases: cell-based, mouse
PSC spheres = assay: PSC sphere colony formation assay and serum-free passaging with BIO; conditions: BIO included during primary serum-free sphere formation and serum-free passaging; period of 5 months
Excerpt: 1) Using the standard PSC sphere colony formation assay, the (commercially available) compound, BIO ((2_Z,3_E)-6-Bromoindirubin-3_-oxime) has been included. […] The GSK-3α/β protein kinases have a critical role within the Wnt-signalling pathway, with their inhibition by BIO leading to an activation of the Wnt pathway. The Wnt pathway is involved with the specification/development of multiple tissues. With BIO inclusion during the primary serum-free sphere formation and subsequent serum-free passaging, PSC spheres can be passaged indefinitely. PSC spheres have been successfully passaged, currently up to the 9th passage over a period of 5 months. The number of sphere-forming cells and resultant clonal spheres expanded (over 30-fold) during this period.
Isolated islets and ductal tissue were then incubated with trypsin (Sigma) at 37° C. and triturated with a small-borehole siliconized pipette into a single cell suspension. Viable cells were counted using Trypan Blue (Sigma) exclusion and plated at 20 cells μl^−1 or less in defined serum-free medium (SFM)^63 containing B27 (Gibco-BRL), 10 ng ml^−1 FGF2 (Sigma), 2 μg ml^−1 heparin (Sigma), and 20 ng ml^−1 EGF (Sigma) for 7-14 DIV. […] Each well was scored after plating for the presence of a single cell. […]

[1] = system: differentiated PSC colonies; assay: Insulin release by differentiated PSC colonies (radioimmunoassay); conditions: 1.5 hour incubation; for insulin release in response to high glucose plus agent: 20 mM glucose with 30 nM GLP-1, 10 mM TEA or 100 μM verapamil; for insulin release in response to agent alone: 20 mM glucose (HG) or 100 μM carbachol alone, relative to LG-KRB
Experimental: PSC colonies were pooled and differentiated (8 per well, 96-well Matrigel-coated plates) for 7 days as described. Twenty-four hours prior to secretion studies, the medium was changed to supplemented RPMI-1640 medium as outlined above. Differentiated PSC colonies were pre-incubated in low glucose (2.5 mM) KRB solution (LG-KRB) for 1 hour. The solution was changed to 150 μl of fresh LG-KRB and the cultures were incubated for 1.5 hours to establish the basal level of insulin release. […] Insulin was measured using an RIA kit (Linco). Insulin release during the experimental 1.5 hour incubation was compared to the level determined during the basal 1.5 hour incubation period for each individual well to obtain a percent change. The data are expressed relative to the percent change measured for the LG-KRB to LG-KRB alone condition.

[2] = system: YFP+ cells from islet- and ductal-derived PSC cultures; assay: [Ca2+]i imaging (Fura2) of RIP-YFP+ cells from differentiated PSC colonies; conditions: agent added on top of glucose; single YFP+ cells, islet- and ductal-derived PSC progeny

O=C1Nc2cc(Br)ccc2/C1=C1/Nc2ccccc2/C1=N\O [BIO, (2_Z,3_E)-6-Bromoindirubin-3_-oxime]
expansion of the number of sphere-forming cells and resultant clonal spheres (PSC spheres): over 30 fold

CC[N+](CC)(CC)CC [TEA, tetra ethyl ammonium]
insulin release in response to high glucose plus agent [1]: augmentation of this release; also recorded: increased insulin secretion; also recorded: increased insulin release
effect of added agent on glucose-stimulated [Ca2+]i response [2]: augmented

C[N+](C)(C)CCOC(N)=O [carbachol]
insulin release in response to agent alone [1]: insulin release in response to carbachol; also recorded: secrete insulin in response to carbachol
insulin release in response to agent alone ([1]; listed as Carbachol): increased insulin release

COc1ccc(CCN(C)CCCC(C#N)(c2ccc(OC)c(OC)c2)C(C)C)cc1OC (centres unmarked) [verapamil]
insulin release in response to high glucose plus agent [1]: abolishes glucose-stimulated insulin release to basal levels; also recorded: abolished the glucose-stimulated insulin release

glucagon-like peptide-1 (HAEGTFTSDVSSYLEGQAAKEFIAWLVKGR; ends and bridges not checked; UniProt P01275 98-127, looked up) [GLP-1, physiological secretagogue known to stimulate β-cells in a glucose-dependent manner]
insulin release in response to high glucose plus agent [1]: augmentation of this release; also recorded: increased insulin secretion; also recorded: increased insulin release
effect of added agent on glucose-stimulated [Ca2+]i response [2]: augmented
